Test results reported in patent US20260347372A1, “SMALL MOLECULE INHIBITORS OF KRAS G12D MUTANT” (MERCK SHARP & DOHME LLC, priority 2023, published 2026).

Key:
[1] = molecular target: KRAS WT (Homo sapiens, UniProt P01116); assay: SOS-catalyzed nucleotide exchange assay, KRAS WT (Procedure A); assay type: biochemical; settings: GNE
Procedure, shortened: (§1)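 Compounds were preincubated 60 min with a biotinylated RAS·Bodipy-GDP/Tb-streptavidin TR-FRET complex, and exchange was started with human SOS plus 3 mM GTP at RT. RAS/SOS: G12C 3 nM/40 nM, WT and G12D 1 nM/40 nM, all 60 min; G13D 1.25 nM/0 nM, 30 min. 520/495 ratio normalized to DMSO and saturating inhibitor, four-parameter fit.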

[2] = molecular target: T1, AsPC-1 cells (Homo sapiens, UniProt P01116, G12D); assay: Cellular phospho-ERK assay, AsPC-1 cells (KRAS G12D); assay type: cell-based; settings: 2 hours, read-out: AsPC1 pERK IC50
T1 construct: p-ERK/total ERK AlphaSureFire read-out
T1 sequence (P01116 1-188 isoform P01116-2 G12D): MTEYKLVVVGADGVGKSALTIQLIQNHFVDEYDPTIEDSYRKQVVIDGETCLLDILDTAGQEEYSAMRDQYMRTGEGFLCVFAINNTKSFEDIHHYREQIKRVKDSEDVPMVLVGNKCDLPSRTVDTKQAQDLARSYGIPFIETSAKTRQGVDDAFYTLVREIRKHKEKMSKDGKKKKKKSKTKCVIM
Procedure, shortened: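 PANC08.13 or AsPC-1 cells (homozygous KRAS G12D) were seeded overnight, then treated for 2 h at 37 °C with a 10-point 1:3 titration from 30 μM. Lysates were assayed by AlphaLISA SureFire for p-ERK and total ERK. IC50 came from a 4-parameter fit of the p-ERK/total ERK ratio.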

[3] = molecular target: KRAS G12V (Homo sapiens, UniProt P01116, G12V); assay: SOS-catalyzed nucleotide exchange assay, KRAS G12V (Procedure A); assay type: biochemical; settings: GNE
Sequence of KRAS G12V (P01116 with tags, fused parts or gaps isoform P01116-2 G12V): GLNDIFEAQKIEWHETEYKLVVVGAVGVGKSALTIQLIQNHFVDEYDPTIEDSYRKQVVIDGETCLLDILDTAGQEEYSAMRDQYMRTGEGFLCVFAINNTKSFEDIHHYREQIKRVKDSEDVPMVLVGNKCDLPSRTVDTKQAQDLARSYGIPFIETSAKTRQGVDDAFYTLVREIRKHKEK
Procedure, shortened: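 Biotinylated KRAS G12V was loaded with Bodipy-GDP alongside Terbium-streptavidin to form a TR-FRET complex, which was preincubated with compounds for 60 minutes in 384-well plates. Human SOS protein and unlabeled GTP were then added for 90 minutes, giving final concentrations of 1.25 nM KRAS-G12V, 160 nM SOS and 3 mM GTP. The 520/495 nm emission ratio was read on an Envision.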

[4] = molecular target: KRAS G12D (Homo sapiens, UniProt P01116, G12D); assay: SOS-catalyzed nucleotide exchange assay, KRAS G12D (Procedure A); assay type: biochemical; settings: guanine nucleotide exchange (GNE)
Sequence of KRAS G12D (P01116 with tags, fused parts or gaps isoform P01116-2 G12D): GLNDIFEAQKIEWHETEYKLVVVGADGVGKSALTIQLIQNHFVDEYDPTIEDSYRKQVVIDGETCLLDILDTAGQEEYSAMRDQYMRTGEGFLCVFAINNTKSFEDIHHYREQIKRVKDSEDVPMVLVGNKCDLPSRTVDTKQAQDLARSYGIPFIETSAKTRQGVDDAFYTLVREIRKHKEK
Procedure, shortened: as §1

Sequence of KRAS WT (P01116 with tags, fused parts or gaps isoform P01116-2): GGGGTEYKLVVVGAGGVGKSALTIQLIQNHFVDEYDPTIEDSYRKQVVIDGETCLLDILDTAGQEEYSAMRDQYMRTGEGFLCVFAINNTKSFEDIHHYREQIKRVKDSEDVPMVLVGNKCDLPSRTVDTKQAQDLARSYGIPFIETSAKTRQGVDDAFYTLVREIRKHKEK

SMILES | IC50 [1] [nM] | IC50 [2] [nM] | IC50 [3] [nM] | IC50 [4] [nM]
C#Cc1c(F)ccc2cc3[nH]ncc3c(-c3nccc4c3sc3nc(OCC5(C#N)CCOCC5)nc(N5C[C@H]6CC[C@@H](C5)N6)c34)c12 [Ex-90, 4-(((4-((1R,5S)-3,8-diazabicyclo[3.2.1]octan-3-yl)-8-(5-ethynyl-6-fluoro-1H-benzo[f]indazol-4-yl)pyrido[4′,3′:4,5]thie-no[2,3-d]pyrimidin-2-yl)oxy)methyl)tetrahy-dro-2H-pyran-4-carbonitrile] | > 11100 | 3310 | > 11100 | 187
C#Cc1c(F)ccc2cc3[nH]ncc3c(-c3nccc4c3sc3nc(OCC5(C(=O)NC)CC5)nc(N5C[C@H]6CC[C@@H](C5)N6)c34)c12 [Ex-91, 1-(((4-((1R,5S)-3,8-diazabicyclo[3.2.1]octan-3-yl)-8-(5-ethynyl-6-fluoro-1H-benzo[f]indazol-4-yl)pyrido[4′,3′:4,5]thie-no[2,3-d]pyrimidin-2-yl)oxy)methyl)-N-methylcyclopropane-1-carboxamide] | > 11100 | 5030 | > 11100 | 50.6
C#Cc1c(F)ccc2cc3[nH]ncc3c(-c3nccc4c3sc3nc(OCC56CCCN5CC(=C(F)F)C6)nc(N5C[C@H]6CC[C@@H](C5)N6)c34)c12 (stereo partly drawn) [Ex-93, 4-((1R,5S)-3,8-diazabicyclo[3.2.1]octan-3-yl)-2-(((S)-2-(difluoromethylene)tetra-hydro-1H-pyrrolizin-7a(5H)-yl)methoxy)-8-(5-ethynyl-6-fluoro-1H-benzo[f]indazol-4-yl)pyrido[4′,3′:4,5] thie-no[2,3-d]pyrimidine] | 72.9 | 18 | 94.3 | 1.16
C#Cc1c(F)ccc2cc3[nH]ncc3c(-c3nccc4c3sc3nc(OCC5(CN6CC[C@@H](F)C6)CC5)nc(N5C[C@H]6CC[C@@H](C5)N6)c34)c12 [Ex-94, 4-((1R,5S)-3,8-diazabicyclo[3.2.1]octan-3-yl)-8-(5-ethynyl-6-fluoro-1H-benzo[f]indazol-4-yl)-2-((1-(((R)-3-fluoropyrrolidin-1-yl)methyl)cyclopropyl)methoxy)pyrido[4′,3′: 4,5]thieno[2,3-d]pyrimidine] | 847 | 85.9 | 1950 | 2.99
C#Cc1c(F)ccc2cc3[nH]ncc3c(-c3nccc4c3sc3nc(OC[C@@]56CCC7(CC7)N5C[C@H](F)C6)nc(N5C[C@H]6CC[C@@H](C5)N6)c34)c12 [Ex-97, 4-((1R,5S)-3,8-diazabicyclo[3.2.1]octan-3-yl)-8-(5-ethynyl-6-fluoro-1H-benzo[f]indazol-4-yl)-2-(((6′R,7a′S)-6′-fluorotetrahydrospiro[cy-clopropane-1,3′-pyrrolizin]-7a′(5'H)-yl)methoxy)pyrido[4′, 3′:4,5]thieno[2,3-d]pyrimidine] | 1290 | 210 | 3130 | 3
C#Cc1c(F)ccc2cc3[nH]ncc3c(-c3nccc4c3sc3nc(OC[C@]5(CN6CCC7(CCC7)CC6)CC5(F)F)nc(N5C[C@H]6CC[C@@H](C5)N6)c34)c12 [Ex-98, 2-(((R)-1-((7-azaspiro[3.5]nonan-7-yl)methyl)-2,2-difluorocyclopropyl)meth-oxy)-4-((1R,5S)-3,8-diazabicyclo[3.2.1]octan-3-yl)-8-(5-ethynyl-6-fluoro-1H-benzo[f]indazol-4-yl)pyrido[4′,3′:4,5]thie-no[2,3-d]pyrimidine] | 6360 | 362 | > 11100 | 6.92
C#Cc1c(F)ccc2cc3[nH]ncc3c(-c3nccc4c3sc3nc(OC[C@]5(CN6CC7(CC(F)C7)C6)CC5(F)F)nc(N5C[C@H]6CC[C@@H](C5)N6)c34)c12 [Ex-99, 4-((1R,5S)-3,8-diazabicyclo[3.2.1]octan-3-yl)-2-(((R)-2,2-difluoro-1-((6-fluoro-2-azaspiro[3.3]heptan-2-yl)methyl)cyclopropyl)methoxy)-8-(5-ethynyl-6-fluoro-1H-benzo[f]indazol-4-yl)pyrido[4′,3′:4,5]thie-no[2,3-d]pyrimidine] | 1080 | 59.9 | 2740 | 1.53
C#Cc1c(F)ccc2cc3[nH]ncc3c(-c3nccc4c3sc3nc(OC[C@]5(CN6CCC7(CCCCC7)CC6)CC5(F)F)nc(N5C[C@H]6CC[C@@H](C5)N6)c34)c12 [Ex-100, 2-(((R)-1-((3-azaspiro[5.5]undecan-3-yl)methyl)-2,2-difluorocyclopropyl)meth-oxy)-4-((1R,5S)-3,8-diazabicyclo[3.2.1]octan-3-yl)-8-(5-ethynyl-6-fluoro-1H-benzo[f]indazol-4-yl)pyrido [4′,3′:4,5]thie-no[2,3-d]pyrimidine] | > 11100 | 753 | > 11100 | 8.52
C#Cc1c(F)ccc2cc3[nH]ncc3c(-c3nccc4c3sc3nc(OC[C@]5(CN6CCN(CC(F)(F)F)CC6)CC5(F)F)nc(N5C[C@H]6CC[C@@H](C5)N6)c34)c12 [Ex-101, 4-((1R,5S)-3,8-diazabicyclo[3.2.1]octan-3-yl)-2-(((R)-2,2-difluoro-1-((4-(2,2,2-trifluoroethyl)piperazin-1-yl)methyl)cyclopropyl)methoxy)-8-(5-ethynyl-6-fluoro-1H-benzo[f]indazol-4-yl)pyrido[4′,3′:4,5]thie-no[2,3-d]pyrimidine] | > 11100 | 1210 | > 11100 | 33.1

Other lines, results leading:

IC50 [1] [nM] | IC50 [2] [nM] | IC50 [3] [nM] | IC50 [4] [nM] | SMILES
32.8 | 8.18 | 48.8 | 1.67 | C#Cc1c(F)ccc2cc3[nH]ncc3c(-c3nccc4c3sc3nc(OC[C@@]56CCCN5C/C(=C\F)C6)nc(N5C[C@H]6CC[C@@H](C5)N6)c34)c12 [Ex-89, 4-((1R,5S)-3,8-diazabicyclo[3.2.1]octan-3-yl)-8-(5-ethynyl-6-fluoro-1H-benzo[f]indazol-4-yl)-2-(((S,Z)-2-(fluoromethylene)tetrahydro-1H-pyrrolizin-7a(5H)-yl)methoxy)pyrido[4′,3′:4,5]thieno[2,3-d]pyrimidine]
57.4 | 18.1 | 88.2 | 1.99 | C#Cc1c(F)ccc2cc3[nH]ncc3c(-c3nccc4c3sc3nc(OCC56CCCC5N(C)CCC6)nc(N5C[C@H]6CC[C@@H](C5)N6)c34)c12 (stereo partly drawn) [Ex-92, 4-((1R,5S)-3,8-diazabicyclo[3.2.1]octan-3-yl)-8-(5-ethynyl-6-fluoro-1H-benzo[f]indazol-4-yl)-2-((1-methyloctahydro-4aH-cyclopenta[b]pyridin-4a-yl)methoxy)pyrido[4′, 3′:4,5]thieno[2,3-d]pyrimidine]
2800 | 180 | 6760 | 5.29 | C#Cc1c(F)ccc2cc3[nH]ncc3c(-c3nccc4c3sc3nc(OCC5(CN(C)C)COC5)nc(N5C[C@H]6CC[C@@H](C5)N6)c34)c12 [Ex-95, 1-(3-(((4-((1R,5S)-3,8-diazabicyclo[3.2.1]octan-3-yl)-8-(5-ethynyl-6-fluoro-1H-benzo[f]indazol-4-yl)pyrido[4′,3′:4,5]thie-no[2,3-d]pyrimidin-2-yl)oxy)methyl)oxetan-3-yl)-N,N-dimethylmethanamine]
259 | 22.8 | 248 | 1.62 | C#Cc1c(F)ccc2cc3[nH]ncc3c(-c3nccc4c3sc3nc(OC[C@]5(CN(C)C)CC5(F)F)nc(N5C[C@H]6CC[C@@H](C5)N6)c34)c12 [Ex-96, 1-((1R)-1-(((4-((1R,5S)-3,8-diazabicyclo[3.2.1]octan-3-yl)-8-(5-ethynyl-6-fluoro-1H-benzo[f]indazol-4-yl)pyrido[4′,3′:4,5]thie-no[2,3-d]pyrimidin-2-yl)oxy)methyl)-2,2-difluorocyclopropyl)-N,N-dimethylmethanamine]
> 11100 | 2770 | > 11100 | 12.3 | C#Cc1c(F)ccc2cc3[nH]ncc3c(-c3nccc4c3sc3nc(OC[C@]5(CN6CCN(C(C)=O)CC6)CC5(F)F)nc(N5C[C@H]6CC[C@@H](C5)N6)c34)c12 [Ex-102, 1-(4-(((1R)-1-(((4-((1R,5S)-3,8-diazabicyclo[3.2.1]octan-3-yl)-8-(5-ethynyl-6-fluoro-1H-benzo[f]indazol-4-yl)pyrido [4′,3′:4,5]thie-no[2,3-d]pyrimidin-2-yl)oxy)methyl)-2,2-difluorocyclopropyl)meth-yl)piperazin-1-yl)ethan-1-one]
2360 | 296 | 9280 | 2 | C#Cc1c(F)ccc2cc3[nH]ncc3c(-c3nccc4c3sc3nc(OC[C@]5(CN6CC[C@@H](F)C6)CC5(F)F)nc(N5C[C@H]6CC[C@@H](C5)N6)c34)c12 [Ex-103, 4-((1R,5S)-3,8-diazabicyclo[3.2.1]octan-3-yl)-2-(((R)-2,2-difluoro-1-(((R)-3-fluoropyrrolidin-1-yl)methyl)cyclopropyl)methoxy)-8-(5-ethynyl-6-fluoro-1H-benzo[f]indazol-4-yl)pyrido[4′,3′:4,5]thie-no[2,3-d]pyrimidine]
